From ChEMBL document CHEMBL5634185, “Drymariamides A-J, Antiadipogenic Cyclopeptides Incorporating Noncanonical Amino Acids from Drymaria cordata” (J Nat Prod, 2024) come the findings set out here.

Active and inactive are the calls of the source. No cut-off for these calls is given here. Starred links: 1 amine or outer side, 2 acyl side, 3 side chain; linkers in the order of their positions; H or OH if unused. Non-standard residues stand in square brackets, D forms with d. Residues, ends and D or L forms follow the SMILES beside them. X1 = C[C@@]12Nc3ccccc3[C@]1(O)C[C@@H](C(=O)[*:2])N2[*:1]; Kyn = Nc1ccccc1C(=O)C[C@H](N)C(=O)O

In series [1] the test system is 3T3-L1. In words: Anti-adipogenic activity against mouse 3T3-L1 cells assessed as decrease in triglyceride level at 1 to 100 uM by Oil Red O staining based analysis. As to conditions: dose 1-100 µM. The series is classed as functional, cell-based.
Series [2] relates to 3T3-L1. Put plainly: Cytotoxicity against mouse 3T3-L1 cells assessed as cell viability incubated for 48 hrs by MTT assay. Type of series: toxicity, cell-based. As to conditions: 3t3-l1, 48 h. For orientation: Tetrazolium dyes change colour on reduction, which living cells bring about.
Series [3] concerns 3T3-L1. Put plainly: Anti-adipogenic activity against mouse 3T3-L1 cells assessed as decrease in triglyceride level by Oil Red O staining based analysis. Type of series: functional, cell-based.

Consider `CC(C)C[C@@H]1NC(=O)[C@@H]2CCCN2C(=O)[C@H](Cc2ccccc2)NC(=O)[C@@H]2CCCN2C(=O)[C@H](C)NC(=O)[C@@H]2CCCN2C(=O)[C@H](Cc2ccc(O)cc2)NC1=O` (cyclo(APFPLYP)), for which the result with 3T3-L1 [1] was Active. Also, the Activity result in the series with 3T3-L1 [2] is reported as “Non-Toxic”.

For `CC(C)C[C@@H]1NC(=O)[C@@H]2CCCN2C(=O)[C@H](Cc2ccccc2)NC(=O)[C@@H]2CCCN2C(=O)[C@H](C)NC(=O)[C@H](Cc2ccc(O)cc2)NC(=O)[C@@H]2CCCN2C(=O)[C@H](Cc2ccc(O)cc2)NC1=O` (cyclo(APFPLYPY)), the outcome in the series on 3T3-L1 [1] was Active. Further, the Activity entry in the series with 3T3-L1 [2] was “Non-Toxic”.

As to `CC[C@H](C)[C@@H]1NC(=O)[C@H](Cc2c[nH]c3ccccc23)NC(=O)[C@@H]2CCCN2C(=O)CNC(=O)[C@H](Cc2ccc(O)cc2)NC(=O)CNC(=O)[C@H](C(C)C)NC(=O)[C@H](C)NC1=O` (cyclo(AVGYGPWI)), the outcome in the series with 3T3-L1 [1] was Active. Further, in the series on 3T3-L1 [2], the Activity result is reported as “Non-Toxic”.

The term EC50 denotes the concentration at which the effect is half-maximal. Consider `CC(C)C[C@@H]1NC(=O)[C@H](Cc2ccc(O)cc2)NC(=O)[C@@H]2CCCN2C(=O)[C@H](Cc2ccccc2)NC(=O)CNC(=O)[C@@H]2CCCN2C1=O` (cyclo(FPYLPG)), for which the result in the series on 3T3-L1 [1] was Active. Further, in the series on 3T3-L1 [2], the Activity entry was “Non-Toxic”. For the same molecule, in the series with 3T3-L1 [3], the half-maximal effective concentration (EC50) was 1170 nM.

`O=C1CNC(=O)[C@@H]2CCCN2C(=O)[C@H](Cc2c[nH]c3ccccc23)NC(=O)[C@H](Cc2ccc(O)cc2)NC(=O)[C@@H]2CCCN2C(=O)[C@H](Cc2ccccc2)N1` (cyclo(FPYWPG)): in the series with 3T3-L1 [1], the outcome was Active. For the same molecule, the Activity result with 3T3-L1 [2] is on record as “Non-Toxic”.

Consider `Nc1ccccc1C(=O)C[C@@H]1NC(=O)[C@H](Cc2ccc(O)cc2)NC(=O)[C@@H]2CCCN2C(=O)[C@H](Cc2ccccc2)NC(=O)CNC(=O)[C@@H]2CCCN2C1=O` (cyclo(FPY[Kyn]PG)), for which the outcome with 3T3-L1 [1] was Active. Moreover, the Activity entry with 3T3-L1 [2] is “Non-Toxic”.

Take `C[C@@]12Nc3ccccc3[C@]1(O)C[C@H]1C(=O)N3CCC[C@H]3C(=O)NCC(=O)N[C@@H](Cc3ccccc3)C(=O)N3CCC[C@H]3C(=O)N[C@@H](Cc3ccc(O)cc3)C(=O)N12` (cyclo(FPY[X1]PG)): the outcome in the series with 3T3-L1 [1] was Active. The Activity entry in the series with 3T3-L1 [2] is “Non-Toxic”.

For the molecule `O=C1CNC(=O)[C@@H]2CCCN2C(=O)[C@H](Cc2c[nH]c3ccccc23)NC(=O)[C@H](Cc2ccc(O)cc2)NC(=O)[C@@H]2CCCN2C(=O)CN1` (cyclo(GGPYWP)), in the series on 3T3-L1 [1], the result was Active. Besides, in the series on 3T3-L1 [2], the Activity result is recorded as “Non-Toxic”.

Turning to `CC(C)C[C@@H]1NC(=O)[C@H](CO)NC(=O)[C@@H]2CCCN2C(=O)[C@H](CC(C)C)NC(=O)[C@@H]2CCCN2C(=O)[C@H](CO)NC(=O)CNC(=O)[C@H](Cc2c[nH]c3ccccc23)NC1=O` (cyclo(GSPLPSLW)), the result with 3T3-L1 [1] was Active. Further, the Activity entry in the series on 3T3-L1 [2] is “Non-Toxic”.

As for `CC(C)C[C@@H]1NC(=O)[C@@H]2CCCN2C(=O)[C@H](CO)NC(=O)CNC(=O)[C@@H]2C[C@@]3(O)c4ccccc4N[C@@]3(C)N2C(=O)[C@H](CC(C)C)NC(=O)[C@H](CO)NC(=O)[C@@H]2CCCN2C1=O` (cyclo(GSPLPSL[X1])), in the series with 3T3-L1 [1], the outcome was Active. In addition, in the series on 3T3-L1 [2], the Activity entry is on record as “Non-Toxic”.
